Patent US20240148821A1, “PHARMACEUTICAL USE OF CYCLIC PEPTIDE COMPOUND” (CHUGAI SEIYAKU KABUSHIKI KAISHA, priority 2021, published 2024)
Numbered stars: 1 amine (or outer) side, 2 acyl side, 3 side chain; on linkers, the order of the positions; unused ones are H or OH. Bridge positions count the residues as written; N and C are the ends. Square brackets hold non-standard residues; d marks the D form. Peptide text beside a SMILES is read from it. * marks the point of attachment. hPhe(3,5-F2-4-CF3) = N[C@@H](CCc1cc(F)c(C(F)(F)F)c(F)c1)C(=O)O; hPhe(3-Cl-4-CF3) = N[C@@H](CCc1ccc(C(F)(F)F)c(Cl)c1)C(=O)O; NMePhe(4-CF3) = CN[C@@H](Cc1ccc(C(F)(F)F)cc1)C(=O)O; NMeAbu(4,4,4-F3) = CN[C@@H](CC(F)(F)F)C(=O)O; X131 = O=C([C@H](Cc1cccc(Br)c1F)N[*:1])[*:2]; X59 = Cc1ccc(Br)cc1C[C@H](N[*:1])C(=O)[*:2]; Pro(4,4-F2) = O=C(O)[C@@H]1CC(F)(F)CN1; NMeGly(cBu) = CN[C@H](C(=O)O)C1CCC1; NMeY = CN[C@@H](Cc1ccc(O)cc1)C(=O)O; NMeCha = CN[C@@H](CC1CCCCC1)C(=O)O; NMeChg = CN[C@H](C(=O)O)C1CCCCC1; NMeF = CN[C@@H](Cc1ccccc1)C(=O)O; NMeI = CC[C@H](C)[C@H](NC)C(=O)O; NMeT = CN[C@H](C(=O)O)[C@@H](C)O; Gly(cPr) = N[C@H](C(=O)O)C1CC1; NMeD = CN[C@@H](CC(=O)O)C(=O)O; NMeL = CN[C@@H](CC(C)C)C(=O)O; NMeV = CN[C@H](C(=O)O)C(C)C; d(β3hA) = C[C@@H](N)CC(=O)O; NMeAbu = CC[C@H](NC)C(=O)O; Morpholide = C1CN(*)CCO1; NMeA = CN[C@@H](C)C(=O)O; NMeAib = CNC(C)(C)C(=O)O; Nle = CCCC[C@H](N)C(=O)O; Piperidide = C1CCN(*)CC1; Pyrrolidide = C1CCN(*)C1; dNMeA = CN[C@H](C)C(=O)O; Ac5c = NC1(C(=O)O)CCCC1; Aze = O=C(O)[C@@H]1CCN1; Sar = CNCC(=O)O

Tested on: Human pancreatic cancer cell line AsPC-1 (G12D mutation Kras)
Assay: AsPC-1 cell growth inhibition (AsPC-1 CGI)
Type: cell-based
Settings: read-out: AsPC-1 cell growth inhibition, 50% growth inhibitory concentration (IC50 value); 96 hours, CellTiter-Glo, values classified in ranges
Description: Test compounds were serially dilated with dimethyl sulfoxide, and 200 nL was then dispensed to a U-bottom 96-well plate using Labcyte Echo. […] The cell suspension was dispensed to a. plate containing a test compound at 100 μL per well and incubated at 37° C. in a 5% carbon dioxide gas incubator. 96 hours later, 80 μL of CellTiter-Glo (Promega) was added to each well and fluorescence was measured.

SMILES	IC50
CC(C)C[C@H]1C(=O)N[C@@H](C2CC2)C(=O)N(C)CC(=O)N(C)CC(=O)N(C)[C@@H](CC2CCCCC2)C(=O)N(C)CC(=O)N[C@@H](CCc2ccc(C(F)(F)F)c(Cl)c2)C(=O)N2CCC[C@H]2C(=O)NC2(CCCC2)C(=O)N(C)[C@@H](C(C)C)C(=O)N(C)[C@H](C(=O)N2CCCCC2)CC(=O)N1C [Compound 533] ([NMeL][Gly(cPr)][Sar][Sar][NMeCha][Sar][hPhe(3-Cl-4-CF3)]P[Ac5c][NMeV][NMeD]-Piperidide; lactam N-11)	> 500 nM
CCCC[C@@H]1NC(=O)[C@H](Cc2cc(Br)ccc2C)NC(=O)CN(C)C(=O)[C@H](Cc2ccc(OC)cc2)N(C)C(=O)[C@@H]2CCN2C(=O)[C@H](C)N(C)C(=O)[C@H]([C@@H](C)CC)NC(=O)[C@H](CC)N(C)C(=O)C[C@@H](C(=O)N2CCCCC2)N(C)C(=O)[C@H](CC(C)C)NC(=O)C(C)(C)N(C)C1=O [Compound 1195] ([NMeAbu]I[NMeA][Aze][NMeY](Me)[Sar][X59][Nle][NMeAib]L[NMeD]-Piperidide; lactam N-11)	> 500 nM
CC[C@H](C)[C@@H]1NC(=O)[C@H](CC(C)C)N(C)C(=O)C[C@@H](C(=O)N2CCCC2)N(C)C(=O)[C@H]([C@@H](C)CC)N(C)C(=O)C2(CCCC2)NC(=O)[C@@H]2CCCN2C(=O)[C@H](CCc2cc(F)c(C(F)(F)F)c(F)c2)NC(=O)CN(C)C(=O)[C@H](Cc2ccc(C(F)(F)F)cc2)N(C)C(=O)[C@@H]2CCN2C(=O)[C@H](C)N(C)C1=O [Compound 1343] ([NMeL]I[NMeA][Aze][NMePhe(4-CF3)][Sar][hPhe(3,5-F2-4-CF3)]P[Ac5c][NMeI][NMeD]-Pyrrolidide; lactam N-11)	≤ 20 nM
CCCC[C@@H]1NC(=O)[C@H](Cc2cccc(Br)c2F)NC(=O)CN(C)C(=O)[C@H](Cc2ccc(OC)cc2)N(C)C(=O)[C@@H]2CCN2C(=O)[C@H](C)N(C)C(=O)[C@H]([C@@H](C)CC)NC(=O)[C@H](CC)N(C)C(=O)C[C@@H](C(=O)N2CCCCC2)N(C)C(=O)[C@H](CC(C)C)NC(=O)C(C)(C)N(C)C1=O [Compound 1304] ([NMeAbu]I[NMeA][Aze][NMeY](Me)[Sar][X131][Nle][NMeAib]L[NMeD]-Piperidide; lactam N-11)	> 500 nM
CC[C@H](C)[C@@H]1NC(=O)[C@H](CC(F)(F)F)N(C)C(=O)C[C@@H](C(=O)N2CCCC2)N(C)C(=O)[C@H](C2CCCCC2)N(C)C(=O)C2(CCCC2)NC(=O)[C@@H]2CC(F)(F)CN2C(=O)[C@H](CCc2cc(F)c(C(F)(F)F)c(F)c2)NC(=O)CN(C)C(=O)[C@H](CC2CCCCC2)N(C)C(=O)CN(C)C(=O)CN(C)C1=O [Compound 1281] ([NMeAbu(4,4,4-F3)]I[Sar][Sar][NMeCha][Sar][hPhe(3,5-F2-4-CF3)][Pro(4,4-F2)][Ac5c][NMeChg][NMeD]-Pyrrolidide; lactam N-11)	≤ 20 nM
CC[C@H](C)[C@@H]1NC(=O)[C@H](C2CCC2)N(C)C(=O)C[C@@H](C(=O)N2CCCC2)N(C)C(=O)[C@H](C2CCCCC2)N(C)C(=O)C2(CCCC2)NC(=O)[C@@H]2CC(F)(F)CN2C(=O)[C@H](CCc2ccc(C(F)(F)F)c(Cl)c2)NC(=O)CN(C)C(=O)[C@H](CC2CCCCC2)N(C)C(=O)CN(C)C(=O)CN(C)C1=O [Compound 1363] ([NMeGly(cBu)]I[Sar][Sar][NMeCha][Sar][hPhe(3-Cl-4-CF3)][Pro(4,4-F2)][Ac5c][NMeChg][NMeD]-Pyrrolidide; lactam N-11)	≤ 20 nM
CC[C@H](C)[C@@H]1NC(=O)[C@H](C)N(C)C(=O)C[C@@H](C(=O)N2CCOCC2)N(C)C(=O)[C@H](C(C)C)N(C)C(=O)C2(CCCC2)NC(=O)[C@@H]2CCCN2C(=O)[C@H](CCc2ccc(C(F)(F)F)c(Cl)c2)NC(=O)[C@@H](C)N(C)C(=O)[C@H](CC2CCCCC2)N(C)C(=O)[C@@H]2CCCN2C(=O)CN(C)C1=O [Compound 1788] ([NMeA]I[Sar]P[NMeCha][dNMeA][hPhe(3-Cl-4-CF3)]P[Ac5c][NMeV][NMeD]-Morpholide; lactam N-11)	> 500 nM
CC[C@H](C)[C@@H]1NC(=O)[C@H](C)N(C)C(=O)C[C@@H](C)NC(=O)[C@H](C(C)C)N(C)C(=O)C2(CCCC2)NC(=O)[C@@H]2CCCN2C(=O)[C@H](CCc2ccc(C(F)(F)F)c(Cl)c2)NC(=O)[C@H]2CCCN2C(=O)[C@H](Cc2ccccc2)N(C)C(=O)[C@@H]2CCCN2C(=O)CN(C)C1=O [Compound 1730] (cyclo([Ac5c][NMeV][d(β3hA)][NMeA]I[Sar]P[NMeF][dP][hPhe(3-Cl-4-CF3)]P))	> 500 nM
CC[C@H](C)[C@@H]1NC(=O)[C@H](CC(C)C)N(C)C(=O)C[C@@H](C(=O)N2CCCCC2)N(C)C(=O)[C@H]([C@@H](C)OC)N(C)C(=O)C2(CCCC2)NC(=O)[C@@H]2CCCN2C(=O)[C@H](CCc2ccc(C(F)(F)F)c(Cl)c2)NC(=O)CN(C)C(=O)[C@H](CC2CCCCC2)N(C)C(=O)CN(C)C(=O)CN(C)C1=O [Compound 1101] ([NMeL]I[Sar][Sar][NMeCha][Sar][hPhe(3-Cl-4-CF3)]P[Ac5c][NMeT](Me)[NMeD]-Piperidide; lactam N-11)	> 500 nM
